Data set [1] concerns platelets. Conditions: preclinical pharmacology data; in words; cited from earlier work.
Data set [2] deals with rats with monocrotaline induced pulmonary arterial hypertension. The experiment in a line: Hemodynamic evaluation in anesthetized rats treated with monocrotaline to induce pulmonary arterial hypertension. The format is in vivo, Sprague-Dawley rats. Conditions: for HR / HW/BW / Heart Wt / LV Wt / Lung Wt / MAP / Mean PAP / RV Wt / RV/BW / Systolic PAP / RV/LV + S: 28 days, MCT rats, mean ± SEM; for RV/LV + S: Fulton's Index. As to the method:
The effects of sildenafil and anagrelide were evaluated in rats with monocrotaline induced pulmonary arterial hypertension. Male Sprague-Dawley rats were orally administered vehicle (variable, see below), anagrelide (1 mg/kg given once daily for 28 days or 2 mg/kg total daily dose, divided into a BID regimen given every day for 28 days starting on Day 1), or sildenafil (30 mg/kg, administered twice daily) (n=10 in each group). Rats received a single injection of monocrotaline (60 mg/kg, s.c.) on Study Day 1. On the twenty-eighth day following monocrotaline dosing, the rats were anesthetized with ketamine/xylazine for terminal monitoring of pulmonary and systemic arterial pressures along with heart rate. The study design for the test article and vehicle administrations are detailed below: […]

The subject of data set [3] is rat monocrotaline (MCT) model of PAH. The experiment in a line: Pulmonary arterial hypertension efficacy model: monocrotaline rat. In kind it is in vivo, Sprague-Dawley rats. Conditions: in words. As for the experimental part: Adult male Sprague-Dawley rats (287±4 g) were obtained from Charles River Laboratories (Raleigh, N.C.). Animals housed individually in a temperature/humidity controlled room with 12-hour light/dark cycles, had free access to water and food and were acclimated for one week prior to the study. Rats were randomly assigned to one of the experimental groups (n=10 per group). Rats in groups 1 and 2 served as healthy controls; the remaining rats were injected subcutaneously on Day 0 with 60 mg/kg body weight monocrotaline, the toxic alkaloid of Crotalaria spectabilis, (dissolved in DMSO at a concentration of 60 mg/ml, Sigma Aldrich, St. Louis, Mo.). On days 1-21, the rats were dosed via oral gavage (2 ml/kg) with vehicle (PBS), or the test compound—Anagrelide. Rats were weighed daily, and the dosages of test compound adjusted appropriately.
Monocrotaline (MCT) is an 11-membered macrocyclic pyrrolizidine plant alkaloid. A single SQ injection into rats results in hepatic generation of toxic metabolite—MCT pyrrole. Phase II metabolism of MCT is through glutathione conjugation. Reactive metabolite is transported to lungs, injuring pulmonary vasculature.

For data set [4] the following is noted: metabolite versus anagrelide; cited from earlier work.
Data set [5] deals with platelets. The note with it: metabolite; in words; cited from earlier work.
Setting [6] is: 2 mg/kg/day given BID, after 28 days, in words.
Where [7] appears, read: Anagrelide 1 mg/kg once daily oral.
The mark [8] stands for this setting: Anagrelide 2 mg/kg/day bid oral.
The mark [9] stands for this setting: daily oral doses for three weeks.
Setting [10] is: Sildenafil 60 mg/kg/day bid oral.

Turning to `O=C1CN2Cc3c(ccc(Cl)c3Cl)N=C2N1` [Anagrelide, anagrelide], in the data set on platelets [1], the “effect on other cellular components of the blood” value is listed as “no significant effect” and the “inhibition of platelet aggregation” value is on record as “potent inhibitor”. In data set [2] (setting [6]), the “mean pulmonary arterial pressure compared to the vehicle group” value is on record as “differences” and the “systolic pulmonary arterial pressure compared to the vehicle group” value was “reduction”. For the same molecule, in data set [2] (setting [7]), the HR was determined as 325 ± 28 bpm, the HW/BW stood at 4.34 ± 0.45, the “Heart Wt” value is 1.37 ± 0.03 g and the “LV Wt” value is given as 0.76 ± 0.01 g. Moreover, in data set [2] (setting [7]), the “Lung Wt” value was found to be 2.10 ± 0.19 g, the MAP came to 59 ± 5 mm Hg, the “Mean PAP” value is given as 36 ± 2 mm Hg and the “RV Wt” value came to 0.47 ± 0.01 g. In data set [2] (setting [7]), the RV/BW came out at 1.49 ± 0.16, the “Systolic PAP” value was found to be 44 ± 2 mm Hg and the “RV/LV + S” value came to 0.62 ± 0.01. Also, in data set [2] (setting [8]), the HR was found to be 258 ± 10 bpm, the HW/BW was 3.98 ± 0.24, the “Heart Wt” value is given as 1.21 ± 0.04 g and the “LV Wt” value is 0.69 ± 0.02 g. Besides, in data set [2] (setting [8]), the “Lung Wt” value amounted to 2.21 ± 0.07 g, the MAP came to 52 ± 6 mm Hg, the “Mean PAP” value is 36 ± 2 mm Hg and the “RV Wt” value worked out at 0.41 ± 0.02 g. Besides, in data set [2] (setting [8]), the RV/BW was 1.35 ± 0.12, the “Systolic PAP” value was determined as 43 ± 4 mm Hg and the “RV/LV + S” value is recorded as 0.59 ± 0.04. Also, the “hypertrophy when correcting RV (wt) by body weight” value in data set [2] (at either dose, in words) is on record as “decrease in hypertrophy”. Further, in data set [2] (in words), the “Mean arterial pressure compared to vehicle” value is “lower” and the “right ventricular hypertrophy (RV/LV+S, Fulton's Index) compared to vehicle” value is on record as “no change”. Further, in data set [3] (daily oral doses for three weeks after MCT 60 mg/kg s.c.), the “development of PAH” value was “prevent the development of PAH”. Also, in data set [3] (setting [9]), the “hypertrophy of the right ventricle” value is given as “prevents” and the “monocrotaline (MCT)-induced elevations in pressure in the pulmonary arterial circuit” value is “prevents”.

On to `O=C1NC2=Nc3ccc(Cl)c(Cl)c3CN2C1O` (stereo not drawn) [BCH24426, 3-hydroxy anagrelide], for which the “Exposure as measured by plasma AUC compared to anagrelide” value in data set [4] is “approximately 2 fold”.

In the case of `NC1=Nc2ccc(Cl)c(Cl)c2CN1` [RL603, 5,6-dichloro-3,4-dihydroquinazolin-2-ylamine], the “participation in the overall effect of AGRYLIN” value in the data set with platelets [5] was “does not participate”.

Turning to `CCCc1nn(C)c2c(=O)[nH]c(-c3cc(S(=O)(=O)N4CCN(C)CC4)ccc3OCC)nc12` [Sildenafil], in data set [2] (setting [10]), the “RV/LV + S” value was 0.51 ± 0.03, the HR turned out to be 278 ± 21 bpm, the HW/BW came to 3.89 ± 0.17 and the “Heart Wt” value was 1.24 ± 0.02 g. Besides, in data set [2] (setting [10]), the “LV Wt” value is on record as 0.74 ± 0.02 g, the “Lung Wt” value is 2.36 ± 0.13 g, the MAP was determined as 69 ± 5 mm Hg and the “Mean PAP” value is reported as 38± 6 mm Hg. In addition, in data set [2] (setting [10]), the “RV Wt” value is listed as 0.38 ± 0.02 g, the RV/BW is reported as 1.19 ± 0.09 and the “Systolic PAP” value is 46 ± 7 mm Hg.

Source of the values: patent publication US10022377B2, “Method of treating hypertension” (Cipla Limited, priority 2015, dated 2018).
